{"source": "patent US12516131B2", "about": "“Methods for preventing acute kidney injury” (University of Maryland, Baltimore, priority 2018, dated 2026)", "key": {"[1]": {"experiment": "Lability of reconstituted/diluted DIGIFAB (ouabain binding capacity after storage), protection by E-64", "assay_type": "physicochemical", "conditions": "E-64 at final concentration 1 μM in diluted DIGIFAB", "source_text": "To maintain the immuno-neutralizing activity of stored dilute DIGIFAB samples, we tested the effect of the irreversible protease (primarily papain) inhibitor, E-64."}, "[2]": {"test_system": "ischemia-induced renal injury", "conditions": "somewhat similar rat model; cited from earlier work"}, "[3]": {"test_system": "renal ischemia/reperfusion (RIR) in Wistar rats", "experiment": "Example 1: plasma creatinine in rats following renal ischemia/reperfusion (45 min bilateral renal pedicle clamping)", "assay_type": "in vivo, rat", "conditions": "Ouabain infusion (10 μg/kg/day) / Saline injection; n=9; ±SE", "protocol": "FIG. 7. Effect of DIGIFAB on plasma creatinine in rats following renal ischemia/reperfusion (RIR). Normal male Wistar rats were implanted on “Day 0” with a subcutaneous minipump to deliver ouabain (10 μg/kg/day: open symbols) or vehicle (6 μl/day; solid symbols). Beginning on Day 13, half of the ouabain-infused rats and half of the vehicle-infused rats were injected with DigiFab (triangles), and the remainder (circles) were injected with an equal volume of saline: The DigiFab-treated rats received 0.2 ml DigiFab (10 mg/ml) at 15 hr and 6 hr, and 0.1 ml DigiFab 1 hr pre-operatively. […] Plasma creatinine was measured with a commercial creatinine enzymatic assay kit. […] The subsequent decline toward baseline (measured at 72 hrs; i.e., Day 17) was more rapid (i.e., the slope was steeper) in the DigiFab-injected rats than in the saline-injected rats. […]\nMale Wistar ICS rats (˜300 g) on normal diet were implanted on “Day 0” with a subcutaneous minipump to deliver ouabain—see FIG. 7—(10 μg/kg/day; open symbols) or vehicle (6 μl/day; solid symbols). […] Plasma creatinine was measured after ultrafiltration with 10K filters using a slightly modified rat creatinine enzymatic assay kit (Crystal Chem, Inc., Elk Grove Village, IL). […] The subsequent decline toward baseline (measured at 72 hrs; i.e., Day 17) was more rapid (i.e., the slope was steeper) in the DigiFab-injected rats than in the saline-injected rats. […]"}, "[4]": {"conditions": "rats, cited from earlier work"}}, "note": "Like-named read-outs stand apart in the source and are kept apart here."}
{"smiles": "CC(C)C[C@H](NC(=O)[C@H]1C[C@@H]1C(=O)O)C(=O)NCCCCNC(=N)N", "note": "[E-64, (1S,2S)-2-(((S)-1-((4-guanidinobutyl)amino)-4-methyl-1-oxopentan-2-yl)carbamoyl)cyclopropanecarboxylic acid]", "values": [{"measurement": "effect of E-64 on stability of DIGIFAB's ouabain binding capacity", "setting": "[1]", "result": "markedly improved the stability"}]}
{"smiles": "C[C@]12CC[C@H](O)C[C@H]1CC[C@@H]1[C@@H]2CC[C@]2(C)[C@@](O)(c3ccoc3)CC[C@]12O", "note": "[rostafuroxin]", "values": [{"measurement": "effect on ischemia-induced renal injury", "setting": "[2]", "result": "attenuated ischemia-induced renal injury"}]}
{"smiles": "C[C@@H]1O[C@@H](O[C@H]2C[C@@H](O)[C@]3(CO)[C@H]4[C@H](O)C[C@]5(C)[C@@H](C6=CC(=O)OC6)CC[C@]5(O)[C@@H]4CC[C@]3(O)C2)[C@H](O)[C@H](O)[C@H]1O", "note": "[Ouabain]", "values": [{"measurement": "Percent Recovery of plasma creatinine toward baseline, 24 to 72 hrs post-op", "setting": "[3]", "result": "38.6±17.5", "unit": "%"}, {"measurement": "steady state plasma level", "setting": "[4]; ouabain infused chronically at 3 μg/Kg/24 hr", "result": "~1.95", "unit": "nM"}, {"measurement": "steady state plasma level", "setting": "[4]; ouabain infused chronically at 10 μg/Kg/24 hr", "result": "~2.2", "unit": "nM"}, {"measurement": "steady state plasma level", "setting": "[4]; ouabain infused chronically at 30 μg/Kg/24 hr", "result": "~4.8", "unit": "nM"}]}
